Source: US20110112100A1, “Hepatitis C Virus Inhibitors” (priority 2009, published 2011)
Where a name gives a salt, the structure may show the parent alone. Read-outs that look alike come from different tables or passages of the source.

Columns and labels:
1b (con1) replicon cells = test: HCV 1b replicon inhibitory activity (luciferase, Britelite Plus); format: cell-based, hepatitis C virus; conditions: Hepatitis C virus, read-out: IC50 value (95% Confidence Intervals) pM Replicon 1B assay
In short: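 1b (con1) luciferase replicon cells in DMEM + 10% FCS were exposed to 1-in-3 DMSO compound dilutions for 48 h at 37° C, 5% CO2. Luminescence was read 1-15 min after Britelite Plus addition; EC50 came from log concentration-response curves.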

1a-H77 replicon cells = test: HCV 1a replicon inhibitory activity (Renilla luciferase); format: cell-based, hepatitis C virus; conditions: Hepatitis C virus, read-out: IC50 value (95% Confidence Intervals) pM Replicon 1A assay
In short: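 Replicon cells in DMEM + 10% FCS incubated 48 hours at 37° C., 5% CO2 with 1-in-3 serial dilutions of compound prepared in DMSO. Replication read as Renilla luciferase luminescence after lysis. EC50 taken from log concentration-response curves.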

[1] = Plasma protein binding, Rapid Equilibrium Dialysis; format: in vitro ADME; conditions: human plasma proteins
Description: Plasma binding free fractions (fu) were determined using a proprietary validated Rapid Equilibrium Dialysis (RED) device (Thermofisher). The analyte was spiked to a concentration of 2 μM in pre-prepared male CD rat plasma and 220 μl aliquots (n=4) were loaded into a RED device. The samples were dialysed vs. 350 μl of dulbeccos phosphate buffered saline (dPBS) for 4 h at 37° C. in a CO2 incubator in order to reach equilibrium. After 4 hours, 45 μl buffer and 15 μl plasma aliquots were taken and added to a 200 μl 384-well polypropylene plate. Respective volumes of control buffer were added to the plasma or control plasma was added to the buffer samples to give an identical matrix between samples. The samples were then crashed in 120 μl of acetonitrile and analysed via LC-MS/MS.
For highly bound compounds in the potency assay, which includes 10% foetal calf serum, measured potencies may not reflect real intrinsic potency due to a significant degree of compound binding.

[2] = Compound induced cytotoxicity in HCV replicon cell lines (WST-1 reagent); format: cell-based; conditions: human, 1b (con1) HCV replicon cells; WST-1, 48 hours; in 1 experiment
Description: Test compounds were solubilised to 4 mM in 100% DMSO. Dilutions were made to the desired starting concentration in 100% DMSO and then 1 in 3 dilutions made, again in 100% DMSO. 0.5 μl of each sample was added to 384-well assay plates. White Lumitrac (Greiner) plates were used for the 1a and 1b replicon assays and black, clear bottomed (Greiner) plates were used for the WST-1 cytotoxity assay.
1b (con1) replicon cells were resuspended to a concentration of 1.4×10^5 cells/ml by addition of pre-warmed medium (DMEM+10% FCS). 50 μl of this suspension was added to each well of a 384-well assay plate (Black, clear bottomed, Greiner) already containing 0.5 μl of test compound.
All plates were covered with gas permeable seals and incubated at 37° C., 5% CO2 for 48 hours. After 48 hours, 5 μl WST-1 reagent (Roche, 11 644 807 001) was added to each well and the plate returned to the incubator for 3 hours. After this incubation period absorbance was read at 450 nm on an EnVision (Perkin Elmer) plate reader. The half maximal cytotoxic concentration (CC50) values were calculated for each compound by constructing log concentration-response curves.
All of the exemplified compounds have been screened in a cell proliferation assay (WST-1). A majority have […] in at least 2 independent experiments, the exceptions being the compounds of examples 1, 10, 12, 23, 25, 37, 47, 48, 49, 52, 56, 57, 58, 60, 67, 68, 69, 70, 71, 72, 73, 74, 79, 81 and 84 which have CC50 values>2 μM in 1 experiment, and example 20 where the CC50 is reported as >10 nM (in this instance the top concentration tested in the assay was 10 nM).

[3] = geometric mean, 95% confidence intervals in parentheses, 48 hours, medium with 10% FCS

SMILES | IC50 (1b (con1) replicon cells; [3]) | IC50 (1a-H77 replicon cells; [3]) | fraction unbound at 4 h, 2 µM [1] | IC50 (1b (con1) replicon cells; 48 h) | IC50 (1a-H77 replicon cells; 48 h) | CC50 at 48 h [2]
COC(=O)N[C@H](C(=O)N1CCC[C@H]1c1ncc(-c2ccc(-c3ccc4cc(-c5cnc([C@@H]6CCCN6C(=O)[C@@H](NC(=O)OC)C(C)C)[nH]5)ccc4c3)cc2)[nH]1)C(C)C [Example 2, Methyl {(2S)-1-[(2S)-2-{5-[6-(4-{2-[(2S)-1-{(2S)-2-[(methoxycarbonyl)amino]-3-methyl-butanoyl}pyrrolidin-2-yl]-1H-imidazol-4-yl}phenyl)naphthalen-2-yl]-1H-imidazol-2-yl}pyrrolidin-1-yl]-3-methyl-1-oxobutan-2-yl}carbamate] | 2.37 pM | 22.3 pM | 0.001 |  |  | 
COC(=O)N[C@H](C(=O)N1CCC[C@H]1c1nc(-c2ccc3nc(-c4ccc(-c5cnc([C@@H]6CCCN6C(=O)[C@@H](NC(=O)OC)C(C)C)[nH]5)cc4)ccc3c2)c[nH]1)C(C)C [Example 3, [(S)-1-((S)-2-{4-[2-(4-{2-[(S)-1-((S)-2-Methoxycarbonylamino-3-methyl-butyryl)-pyrrolidin-2-yl]-3H-imidazol-4-yl}-phenyl)-quinolin-6-yl]-1H-imidazol-2-yl}-pyrrolidine-1-carbonyl)-2-methyl-propyl]-carbamic acid methyl ester] | 9.31 pM | 74.6 pM | < 0.0015 |  |  | 
COC(=O)N[C@@H](CCS(C)(=O)=O)C(=O)N1CCC[C@H]1c1ncc(-c2ccc3nc(-c4ccc(-c5c[nH]c([C@@H]6CCCN6C(=O)[C@@H](NC(=O)OC)C(C)C)n5)cc4)cnc3c2)[nH]1 [Example 67, methyl [(2S)-1-[(2S)-2-{5-[2-(4-{2-[(2S)-1-{(2S)-2-[(methoxycarbonyl)amino]-3-methylbutanoyl}pyrrolidin-2-yl]-1H-imidazol-4-yl}phenyl)quinoxalin-6-yl]-1H-imidazol-2-yl}pyrrolidin-1-yl]-4-(methylsulfonyl)-1-oxobutan-2-yl]carbamate trifluoroacetic acid salt] |  |  |  | 74.8 pM | 27.5 pM | > 2000 nM
COC(=O)N[C@H](C(=O)N1CCC[C@H]1c1ncc(-c2ccc(-c3ncc4cc(-c5cnc([C@@H]6CCCN6C(=O)[C@@H](NC(=O)OC)C(C)C)[nH]5)ccc4n3)cc2)[nH]1)C(C)C [Example 1] | 5.89 pM | 36 pM | 0.0015 |  |  | > 2000 nM
CC[C@H](C)[C@H](NC(=O)OC)C(=O)N1CCC[C@H]1c1ncc(-c2ccc3nc(-c4ccc(-c5c[nH]c([C@@H]6CCCN6C(=O)[C@@H](NC(=O)OC)C(C)C)n5)cc4)cnc3c2)[nH]1 [Example 58, Methyl {(2S)-1-[(2S)-2-{4-[4-(6-{2-[(2S)-1-{(2S,3S)-2-[(methoxycarbonyl)amino]-3-methylpentanoyl}pyrrolidin-2-yl]-1H-imidazol-5-yl}quinoxalin-2-yl)phenyl]-1H-imidazol-2-yl}pyrrolidin-1-yl]-3-methyl-1-oxobutan-2-yl}carbamate trifluoroacetic acid salt] |  |  |  | 5.07 pM | 6.71 pM | > 2000 nM
COC(=O)N[C@H](C(=O)N1CCC[C@H]1c1nc(-c2ccc(-c3cnc4cc(-c5cnc([C@@H]6CCCN6C(=O)[C@H](Cc6ccccc6)NC(C)=O)[nH]5)ccc4n3)cc2)c[nH]1)C(C)C [Example 47, Methyl {(2S)-1-[(2S)-2-{4-[4-(6-{2-[(2S)-1-(N-acetyl-L-phenylalanyl)pyrrolidin-2-yl]-1H-imidazol-5-yl}quinoxalin-2-yl)phenyl]-1H-imidazol-2-yl}pyrrolidin-1-yl]-3-methyl-1-oxobutan-2-yl}carbamate trifluoroacetic acid salt] |  |  |  | 52.8 pM | 6850 pM | > 2000 nM
COC(=O)NC(C(=O)N1CCC[C@H]1c1ncc(-c2ccc3nc(-c4ccc(-c5c[nH]c([C@@H]6CCCN6C(=O)[C@@H](NC(=O)OC)C(C)C)n5)cc4)cnc3c2)[nH]1)C1CCOCC1 (stereo partly drawn) [Example 71, Methyl {(2S)-1-[(2S)-2-{4-[4-(6-{2-[(2S)-1-{[(methoxycarbonyl)amino](tetrahydro-2H-pyran-4-yl)acetyl}pyrrolidin-2-yl]-1H-imidazol-5-yl}quinoxalin-2-yl)phenyl]-1H-imidazol-2-yl}pyrrolidin-1-yl]-3-methyl-1-oxobutan-2-yl}carbamate] | 23.7 pM | 30.7 pM |  |  |  | > 2000 nM
